Results published in patent US8101760B2, “Glucocorticoid receptor modulator and methods of use” (Eli Lilly and Company, priority 2007, dated 2012).
Like-named read-outs stand apart in the source and are kept apart here.

Columns and labels:
[1] = system: carrageenan-induced paw edema; assay: Carrageenan-induced paw edema (CPE) model; assay type: in vivo, rat; conditions: rat; for ED50: oral gavage 2 h before carrageenan, 3 h after injection, mean of 5
Description: Carrageenans are a group of polysaccharides which can induce an acute inflammatory response in animals. Cardinal signs of inflammation including edema, hyperalgesia and erythema are developed in the injection site immediately following injection. The CPE model (Winter et al., Proc. Soc. Exp. Biol. Med. 111, 544-547, 1962) is a recognized model of inflammation and can be used to evaluate the antinflammatory effects of glucocorticoid receptor ligands.
To evaluate the anti-inflammatory effects of Compound (I), the Compound (I) is formulated in a vehicle comprising 0.5% carboxymethyl cellulose and 0.25% Tween 80 then administered orally via gavage to male Sprague-Dawley rats (180-200 g) (Harlan Industries, Indianapolis, Ind.). For comparison, prednisolone is administered orally in the same vehicle. Two hours later, 1% carrageenan in 50 μL of 0.9% pyrogen free saline is injected into the subplantar regions of the right hind paw. Rats are euthanized by CO2 at 3 hours after the carrageenan injection. Paws are removed then weighed using a microbalance. Paws are then immediately immersed into liquid nitrogen until frozen. Frozen paws are dissected by making several cuts on the paw surface then centrifuged to extract the exudates. Exudate levels of IL-1β, a cytokine generated during the inflammatory response, is then measured by ELISA (R&D Systems, Inc., Catalog No. RLB00) using standard techniques. Total paw protein is also measured using a protein assay kit (Pierce Biotechnology, Inc., Rockford, Ill., U.S.A., Catalog No. 1856210) and the absolute level of IL-1β is normalized to yield a concentration value of ng IL-1β/mg total protein.

[2] = target: T1, human AR (androgen receptor) (Homo sapiens, UniProt P10275); assay: Nuclear hormone receptor binding assay, AR
T1 construct: expressed in transfected cells; host or cells: HEK293 (lysate, '293-AR lysate')
T1 sequence (P10275 1-920): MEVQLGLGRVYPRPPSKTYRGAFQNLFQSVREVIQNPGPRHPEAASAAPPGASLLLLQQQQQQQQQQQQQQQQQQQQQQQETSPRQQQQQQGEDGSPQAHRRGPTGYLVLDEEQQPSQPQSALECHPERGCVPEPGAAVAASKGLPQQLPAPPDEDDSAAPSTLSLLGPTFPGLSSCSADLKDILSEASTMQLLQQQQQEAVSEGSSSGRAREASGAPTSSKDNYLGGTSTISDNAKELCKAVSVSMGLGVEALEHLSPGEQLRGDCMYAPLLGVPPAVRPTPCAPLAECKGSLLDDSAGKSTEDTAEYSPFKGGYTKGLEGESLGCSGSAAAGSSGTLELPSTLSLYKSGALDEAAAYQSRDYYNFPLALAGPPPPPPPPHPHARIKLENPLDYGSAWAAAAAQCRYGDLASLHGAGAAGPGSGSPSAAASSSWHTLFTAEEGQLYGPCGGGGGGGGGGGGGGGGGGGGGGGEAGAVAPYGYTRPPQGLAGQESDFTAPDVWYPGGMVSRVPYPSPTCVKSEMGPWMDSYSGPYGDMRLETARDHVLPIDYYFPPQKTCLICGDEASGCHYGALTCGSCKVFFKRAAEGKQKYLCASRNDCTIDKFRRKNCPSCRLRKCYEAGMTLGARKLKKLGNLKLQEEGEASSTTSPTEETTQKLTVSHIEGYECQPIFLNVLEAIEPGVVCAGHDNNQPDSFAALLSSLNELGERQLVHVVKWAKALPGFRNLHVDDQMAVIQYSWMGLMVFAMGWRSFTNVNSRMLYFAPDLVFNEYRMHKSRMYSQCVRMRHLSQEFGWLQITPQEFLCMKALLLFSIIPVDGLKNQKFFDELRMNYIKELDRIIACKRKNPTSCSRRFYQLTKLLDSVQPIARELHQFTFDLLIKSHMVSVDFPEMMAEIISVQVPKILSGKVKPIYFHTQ
Procedure: Cell lysates from human embryonic kidney HEK293 cells overexpressing human GR (glucocorticoid receptor), AR (androgen receptor), MR (mineralocorticoid receptor), or PR (progesterone receptor) are used for receptor-ligand competition binding assays to determine Ki values.
Briefly, steroid receptor competition binding assays are run in a buffer containing 20 mM Hepes buffer (pH=7.6), 0.2 mM EDTA, 75 mM NaCl, 1.5 mM MgCl2, 20% glycerol, 20 mM sodium molybdate, 0.2 mM DTT (dithiothreitol), 20 μg/mL aprotinin and 20 μg/mL leupeptin. Typically, steroid receptor binding assays include radio-labeled ligands, such as 0.3 nM [^3H]-dexamethasone for GR binding, 0.36 nM [^3H]-methyltrienolone for AR binding, 0.25 nM [^3H]-aldosterone for MR binding, and 0.29 nM [^3H]-methyltrienolone for PR binding, and either 20 μg 293-GR lysate, 22 μg 293-AR lysate, 20 μg 293-MR lysate or 40 μg 293-PR lysate per well. Assays are typically run in 96-well format. Competing test compounds are added at various concentrations ranging from about 0.01 nM to 10 μM. Non-specific binding is determined in the presence of 500 nM dexamethasone for GR binding, 500 nM aldosterone for MR binding, or 500 nM methyltrienolone for AR and PR binding. […] After an incubation of 2 hours, plates are read in a Wallac Microbeta counter. […]

Ki ([2]; HEK293 cell lysate expressing human AR, [3H]-methyltrienolone, mean of 5 determinations): 16.2 nM | greater affinity for GR relative to AR ([2]; binding selectivity GR vs AR): ≥ 30 fold
Structure (SMILES): CC/C(=C1\c2ccc(Cl)cc2OCc2ncccc21)c1cccc(NS(C)(=O)=O)c1 [Compound (I), (E)-N-{3-[1-(8-Chloro-11H-10-oxa-1-aza-dibenzo[a,d]cyclohepten-5-ylidene)-propyl]-phenyl}-methanesulfonamide]
inhibition of carrageenan induced paw edema ([1]; oral administration, in words): dose dependently inhibits | production of interleukin-1-beta (IL-1β) ([1]; oral administration, in words): inhibits production | ED50 ([1]; read-out: ED50, inhibition of carrageenan induced paw weight gain): ~1.2 mg/kg | ED50 ([1]; read-out: ED50, reduction of paw exudate levels of IL-1β): ~0.31 mg/kg
